Test results taken from patent US12187709B2 (Genentech, Inc., priority 2021, dated 2025).

Experiments:
[1] = target: c-Cbl (residues 47-435) (Homo sapiens (Human), UniProt P22681); assay: c-Cbl SPR assay; type: binding; conditions: 20° C.
Outline: (§1)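 Binding is measured by surface plasmon resonance against both isoforms, with double referencing and 1:1 kinetic fitting. Dissociation time is tuned to 4-5 half-lives.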

[2] = target: Human Cbl-b (residues 40-426) (Homo sapiens (Human), UniProt Q13191); assay: Cbl-b SPR assay; type: binding; conditions: for Fold of selectivity: C-cbl SPR Kd vs Cbl-b SPR Kd; for Kd: SPR, 20° C.
Outline: as §1

[3] = target: Cbl-b (Homo sapiens (Human), UniProt Q13191); assay: Cbl-b LCK Ub TR-FRET assay (Cbl-b Lck HTRF); type: biochemical; conditions: for IC50: Cbl-b LCK Ub TR-FRET; for fold-selectivity (Cbl-b over C-cbl) / (fold-selectivity) Cbl-b and C-Cbl Selectivity: ratio C-cbl Lck HTRF IC50 / Cbl-b Lck HTRF IC50
Outline: (§2)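 Detection reagents added, brief spin, 20 min RT. IC50 fit normalized to no-LCK (low) and DMSO (high) controls.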

[4] = target: c-Cbl (Homo sapiens (Human), UniProt P22681); assay: C-Cbl LCK Ub TR-FRET assay (C-cbl Lck HTRF); type: biochemical
Outline: as §2

Sequence of c-Cbl (P22681 47-435): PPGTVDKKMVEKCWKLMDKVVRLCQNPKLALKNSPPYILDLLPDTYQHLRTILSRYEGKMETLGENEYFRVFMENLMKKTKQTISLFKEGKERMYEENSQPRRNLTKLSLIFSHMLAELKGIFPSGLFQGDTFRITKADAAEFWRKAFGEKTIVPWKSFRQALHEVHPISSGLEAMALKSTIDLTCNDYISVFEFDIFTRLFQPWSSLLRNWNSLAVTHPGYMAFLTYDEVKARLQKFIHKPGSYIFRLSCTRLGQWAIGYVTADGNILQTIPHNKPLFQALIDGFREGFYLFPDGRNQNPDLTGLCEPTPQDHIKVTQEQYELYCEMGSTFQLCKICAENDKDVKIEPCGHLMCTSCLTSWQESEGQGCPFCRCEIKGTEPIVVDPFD
Sequence of c-Cbl (residues 47-435) (P22681 47-435): as above
Sequence of Human Cbl-b (residues 40-426) (Q13191 40-426): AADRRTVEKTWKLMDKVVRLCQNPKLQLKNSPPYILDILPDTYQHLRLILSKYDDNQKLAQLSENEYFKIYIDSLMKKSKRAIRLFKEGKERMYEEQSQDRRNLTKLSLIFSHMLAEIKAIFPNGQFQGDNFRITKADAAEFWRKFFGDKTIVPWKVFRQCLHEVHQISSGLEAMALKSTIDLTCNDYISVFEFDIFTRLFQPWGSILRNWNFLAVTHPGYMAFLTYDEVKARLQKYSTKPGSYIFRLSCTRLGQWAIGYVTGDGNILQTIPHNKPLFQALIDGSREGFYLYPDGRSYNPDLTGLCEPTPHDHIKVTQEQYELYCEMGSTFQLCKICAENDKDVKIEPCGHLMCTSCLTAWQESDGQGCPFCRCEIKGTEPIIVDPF
Sequence of Cbl-b (Q13191 40-426): as above

SMILES | Kd [1] | Fold of selectivity [2] | Kd [2] | IC50 [3] | fold-selectivity (Cbl-b over C-cbl) [3] | IC50 [4] | IC50 ([3]; Example 121) | (fold-selectivity) Cbl-b and C-Cbl Selectivity [3]
Cn1cnnc1[C@]1(c2cccc(N3Cc4c(cc(CNC5(C)CCC5)cc4C(F)(F)F)C3=O)c2)C[C@@H](C)C1 [Compound 35, 2-(3-((1r,3r)-3-methyl-1-(4-methyl-4H-1,2,4-triazol-3-yl)cyclobutyl)phenyl)-6-(((1-methylcyclobutyl)amino)methyl)-4-(trifluoromethyl)isoindolin-1-one] | 1.7 nM | 3.4× | 0.5 nM | 9.1 nM | (0.97x) | 8.8 nM |  | 
Cn1cnnc1[C@]1(c2cc(NC3CCC3)nc(N3Cc4c(cc(CNC5(C)CCC5)cc4C(F)(F)F)C3=O)c2)C[C@@H](C)C1 [Compound 68, 2-(6-(cyclobutylamino)-4-((1R,3R)-3-methyl-1-(4-methyl-4H-1,2,4-triazol-3-yl)cyclobutyl)pyridin-2-yl)-6-(((1-methylcyclobutyl)amino)methyl)-4-(trifluoromethyl)isoindolin-1-one] | 1 nM | 4.3× | 0.24 nM | 8.5 nM | (0.8x) | 7.1 nM |  | 
CO[C@H]1C[C@@](c2cc(NC3CCC3)cc(N3Cc4c(cc(CNC5(C)CCC5)cc4C(F)(F)F)C3=O)c2)(c2nncn2C)C1 [Compound 217, 2-(3-(cyclobutylamino)-5-((1s,3s)-3-methoxy-1-(4-methyl-4H-1,2,4-triazol-3-yl)cyclobutyl)phenyl)-6-(((1-methylcyclobutyl)amino)methyl)-4-(trifluoromethyl)isoindolin-1-one] | 91 nM | 13× | 7.5 nM | 18 nM | 5.5x | 97 nM |  | 
Cn1cnnc1[C@@H](c1cccc(N2Cc3c(cc(CNC4(C)CCC4)cc3C(F)(F)F)C2=O)c1)C1CC(F)C1 (single isomer, unassigned) [Compound 130] | 1.6 nM | 5.3× | 0.3 nM | 5.5 nM | 1.0x | 5.7 nM |  | 
Cn1cnnc1[C@]1(c2cccc(N3Cc4c(cc(CNC5(C)CCC5)cc4C(F)(F)F)C3=O)c2)C[C@@]2(CCO2)C1 [Compound 109, 2-(3-((4s,6s)-6-(4-methyl-4H-1,2,4-triazol-3-yl)-1-oxaspiro[3.3]heptan-6-yl)phenyl)-6-(((1-methylcyclobutyl)amino)methyl)-4-(trifluoromethyl)isoindolin-1-one] | 140 nM | 7.0× | 21 nM | 47 nM | 4.6x | 220 nM |  | 
Cn1cnnc1[C@@H](c1cccc(N2Cc3c(cc([C@@H](NC4(C)CCC4)C4CCC4)cc3C(F)(F)F)C2=O)c1)C1COC1 (single isomer, unassigned) [Compound 433] | 86 nM | 10× | 8.5 nM |  |  | 78 nM | 17 nM | 4.7x
CC(C)[C@H]1CN(C)CCN1Cc1cc2c(c(C(F)(F)F)c1)CN(c1cccc([C@]3(c4nncn4C)C[C@@H](C#N)C3)c1)C2=O (single isomer, unassigned) [Compound 64] | 81 nM | 5.1× | 16 nM | 24 nM | (2.9x) | 70 nM |  | 
Cn1cnnc1[C@@H](c1cccc(N2Cc3c(cc(CNC4(C)CCC4)cc3C(F)(F)F)C2=O)c1)C1CCC1 [Compound 258, (R)-2-(3-(cyclobutyl(4-methyl-4H-1,2,4-triazol-3-yl)methyl)phenyl)-6-(((1-methylcyclobutyl)amino)methyl)-4-(trifluoromethyl)isoindolin-1-one] | 2200 nM | 13× | 170 nM | 170 nM | 5.8x | 970 nM |  | 
CCOc1cc(C2(c3nncn3C)CC(F)(F)C2)cc(N2Cc3c(cc(CNC4(C)CCC4)cc3C(F)(F)F)C2=O)n1 [Compound 182, 2-(4-(3,3-difluoro-1-(4-methyl-4H-1,2,4-triazol-3-yl)cyclobutyl)-6-ethoxypyridin-2-yl)-6-(((1-methylcyclobutyl)amino)methyl)-4-(trifluoromethyl)isoindolin-1-one] | 0.85 nM | 2.7× | 0.35 nM | 11 nM | 1.0x | 11 nM |  | 
Cn1cnnc1[C@H](C[C@@H]1COCCO1)c1cccc(N2Cc3c(cc(CNC4(C)CCC4)cc3C(F)(F)F)C2=O)c1 [Compound 297, 2-(3-((R)-2-((R)-1,4-dioxan-2-yl)-1-(4-methyl-4H-1,2,4-triazol-3-yl)ethyl)phenyl)-6-(((1-methylcyclobutyl)amino)methyl)-4-(trifluoromethyl)isoindolin-1-one] | 5800 nM | 2.0× | 2800 nM | 1300 nM | 1.8x | 2300 nM |  | 
CO[C@H]1C[C@](c2cccc(N3Cc4c(cc(CN[C@@]56CCC[C@@H]5C6)cc4C(F)(F)F)C3=O)c2)(c2nncn2C)C1 [Compound 508, 6-(((1R,5R)-bicyclo[3.1.0]hexan-1-ylamino)methyl)-2-(3-((1r,3R)-3-methoxy-1-(4-methyl-4H-1,2,4-triazol-3-yl)cyclobutyl)phenyl)-4-(trifluoromethyl)isoindolin-1-one] | 24 nM | 14× | 1.7 nM |  |  | 24 nM | 6.2 nM | 3.8x
CCc1cc(N2Cc3c(cc(CNC4(C)CCC4)cc3C(F)(F)F)C2=O)cc([C@]2(c3nncn3C)C[C@H](OC)C2)c1 [Compound 236, 2-(3-ethyl-5-((1r,3r)-3-methoxy-1-(4-methyl-4H-1,2,4-triazol-3-yl)cyclobutyl)phenyl)-6-(((1-methylcyclobutyl)amino)methyl)-4-(trifluoromethyl)isoindolin-1-one] | 47 nM | 2.5× | 19 nM | 38 nM | 1.7x | 65 nM |  | 

The next lines start with the values.

Kd [1] | Fold of selectivity [2] | Kd [2] | IC50 [3] | fold-selectivity (Cbl-b over C-cbl) [3] | IC50 [4] | IC50 ([3]; Example 121) | (fold-selectivity) Cbl-b and C-Cbl Selectivity [3] | SMILES
13 nM | 4.4× | 2.9 nM | 5.1 nM | 1.7x | 8.9 nM |  |  | Cn1cnnc1[C@H](c1cccc(N2Cc3c(cc(CNC4(C)CCC4)cc3C(F)(F)F)C2=O)c1)C1CC(OC(F)F)C1 (single isomer, unassigned) [Compound 389]
9.4 nM | 5.1× | 1.9 nM | 7.6 nM | 1.6x | 12 nM |  |  | Cn1cnnc1[C@H](c1cccc(N2Cc3c(cc(CNC4(C)CCC4)cc3C(F)(F)F)C2=O)c1)[C@H]1C[C@@H](C#N)C1 (single isomer, unassigned) [Compound 141]
90 nM | 16× | 5.7 nM |  |  | 68 nM | 13 nM | 5.1x | CO[C@H]1C[C@](c2cccc(N3Cc4c(cc(CNC5CC6(C5)CC6F)cc4C(F)(F)F)C3=O)c2)(c2nncn2C)C1 (stereo partly drawn) [Compound 504, 6-(((1-fluorospiro[2.3]hexan-5-yl)amino)methyl)-2-(3-((1r,3r)-3-methoxy-1-(4-methyl-4H-1,2,4-triazol-3-yl)cyclobutyl)phenyl)-4-(trifluoromethyl)isoindolin-1-one]
5.2 nM | 12× | 0.47 nM | 5 nM | 1.4x | 7.1 nM |  |  | CS[C@H]1C[C@](c2cccc(N3Cc4c(cc(CNC5(C)CCC5)cc4C(F)(F)F)C3=O)c2)(c2nncn2C)C1 [Compound 323, 2-(3-((1r,3r)-1-(4-methyl-4H-1,2,4-triazol-3-yl)-3-(methylthio)cyclobutyl)phenyl)-6-(((1-methylcyclobutyl)amino)methyl)-4-(trifluoromethyl)isoindolin-1-one]
220 nM | 5.3× | 43 nM | 81 nM | 2.7x | 220 nM |  |  | Cn1cnnc1C1(c2cccc(N3Cc4c(cc(CNC5(C)CCC5)cc4C(F)(F)F)C3=O)c2)CC1 [Compound 283, 2-(3-(1-(4-methyl-4H-1,2,4-triazol-3-yl)cyclopropyl)phenyl)-6-(((1-methylcyclobutyl)amino)methyl)-4-(trifluoromethyl)isoindolin-1-one]
760 nM | 7.0× | 110 nM | 230 nM | 5.9x | 1400 nM |  |  | COC1CC2(C1)CC(c1cccc(N3Cc4c(cc(CNC5(C)CCC5)cc4C(F)(F)F)C3=O)c1)(c1nncn1C)C2 (stereo not drawn) [Compound 229, 2-(3-(6-methoxy-2-(4-methyl-4H-1,2,4-triazol-3-yl)spiro[3.3]heptan-2-yl)phenyl)-6-(((1-methylcyclobutyl)amino)methyl)-4-(trifluoromethyl)isoindolin-1-one]
